Columns and labels:
[1] = test system: E. coli clinical strain UTI89; experiment: Invasion of E. coli UTI89 into bladder epithelial cells; type: cell-based; conditions: 40 μg/ml; 60 minutes; separate experiments (n=4-7)
Description: The effect of test compounds on bacterial invasion of E. coli clinical strain UTI89 was studied as described in Elsinghorst, et al. 1994, Methods Enzymol, 236:405-420; and Martinez et al., 2000, EMBO J., 19:2803-2812. Epithelial bladder cells were grown in plates. Asiatic acid, corosolic acid, or ursolic acid were added at concentrations of 10 μg/ml, 20 μg/ml, or 40 μg/ml to bacteria and epithelial cells for approximately 5, 15, 30, or 60 minutes with approximately 10^7 CFU of E. coli. Binding was assessed at time zero and invasion was assessed at approximately 5, 15, 30, or 60 minutes from completing the mixture of compound, bacteria, and epithelial cells. As a control ethanol was added to cells to a final concentration of 0.1%. The effect of bacterial viability and bacterial adherence during the infection period was evaluated according to the methods described in Martinez et al., 2000, EMBO J., 19:2803-2812.

bacterial invasion = experiment: Bacterial invasion statement of Example 9; conditions: within 15 minutes of administration
S. mutans 25175 = experiment: Biofilm growth inhibition in polycarbonate tubes; type: cell-based; conditions: Streptococcus mutans, 40 μg/mL
[2] = test system: P. aeruginosa strain PAO1; experiment: Rotating disk reactor (RDR) biofilm test with and without tobramycin; type: cell-based, Pseudomonas aeruginosa; conditions: for Test Compound, log10 CFU: no tobramycin; for Tobramycin and Test Compound, log10 CFU: then tobramycin 100 μg/ml 2 h
Description: Biofilm formation of P. aeruginosa was evaluated using a standardized biofilm method with a rotating disk reactor (RDR). This method provides a model resembling the formation of biofilms in cystic fibrosis patients. The rotating disk reactor consists of a one-liter glass beaker fitted with a drain spout. The bottom of the vessel contains a magnetically driven rotor with six 1.27 cm diameter coupons constructed from polystyrene. The rotor consists of a star-head magnetic stir bar upon which a disk was affixed to hold the coupons. The vessel with the stir bar was placed on a stir plate and rotated to provide fluid shear. A nutrient solution (AB Trace Medium with 0.3 mM glucose, see Table 1 below for composition) was added through a stopper in the top of the reactor at a flow rate of 5 ml/min. The reactor volume was approximately 180 ml and varied slightly between reactors depending on the placement of the drain spout and the rotational speed of the rotor. At a volume of 180 ml, the residence time of the reactors was 36 minutes. The reactors were operated at room temperature (c.a. 26° C.).
For each test, two RDRs were operated in parallel with one receiving test compound and the other serving as an untreated control. The RDRs were sterilized by autoclave, then filled with sterile medium and inoculated with P. aeruginosa strain PAO1. The reactors were then incubated at room temperature in batch mode (no medium flow) for a period of 24 hours, after which the flow was initiated for a further 24 hour incubation. Test compounds were dissolved in 10 ml ethanol to achieve a concentration of 1.8 mg/ml. After the 48 hours of biofilm development described above, the 10 ml of ethanol containing the test compounds were added to the reactor to achieve a final concentration of approximately 50, 100, or 200 μg/ml. Control reactors received 10 ml of ethanol. The reactors were then incubated for an additional 24 hours in batch (no flow) mode. After this incubation period, the six coupons were removed from each reactor and placed in 12-well polystyrene tissue culture plates with wells containing either 2 ml of a 100 μg/ml tobramycin solution or 2 ml of phosphate-buffered saline (PBS). These plates were incubated at room temperature for two hours. The coupons were then rinsed by three transfers to plates containing 2 ml of fresh PBS. For each two RDR reactors run in parallel, four sets of three coupons were obtained: one set with no test compound treatment and no tobramycin treatment, one set with no test compound treatment and tobramycin treatment, one set treated with a test compound treatment and no tobramycin treatment, and one set treated with a test compound treatment and tobramycin. After rinsing, one coupon of each set of three was stained with a LIVE/DEAD® BacLight™ Bacterial Viability Kit (Molecular Probes, Eugene Oreg.) and imaged using epifluorescent microscopy. The remaining two coupons were placed in 10 ml of PBS and sonicated for five minutes to remove and disperse biofilm cells. The resulting bacterial suspensions were then serially diluted in PBS and plated on tryptic soy agar plates for enumeration of culturable bacteria. The plates were incubated for 24 hours at 37° C. before colony forming units (CFU) were determined.
The results are averages from experiments performed on three separate days for each test compound. The values reported are as log10 CFU.

cysB gene = conditions: examples of U.S. patent application Ser. No. 11/085,279; cited from earlier work
[3] = test system: Haemophilus influenzae (ATCC 10211); experiment: Antibacterial effect (NCCLS MIC); type: cell-based; conditions: ATCC10211, studied at 64 μg/mL, read-out: MIC (minimal inhibitory concentration)
Description: (§1) Using the appropriate NCCLS procedures, the antibacterial effect of asiatic acid on Haemophilus influenzae (ATCC 10211), E. coli (ATCC 25922), and P. aeruginosa (ATCC 27853) was studied at 64 μg/mL.

[4] = test system: P. aeruginosa (ATCC 27853); experiment: Antibacterial effect (NCCLS MIC); type: cell-based; conditions: Pseudomonas aeruginosa, ATCC27853, studied at 64 μg/mL, read-out: MIC (minimal inhibitory concentration)
Description: as §1

E. coli (ATCC 25922) = experiment: Antibacterial effect (NCCLS MIC); type: cell-based; conditions: Escherichia coli, ATCC25922, studied at 64 μg/mL, read-out: MIC (minimal inhibitory concentration)
Description: as §1

S. sobrinus 6715 = experiment: Biofilm growth inhibition in polycarbonate tubes; type: cell-based; conditions: Streptococcus sobrinus, 40 μg/mL

C[C@H]1[C@H](C)CC[C@]2(C(=O)O)CC[C@]3(C)C(=CC[C@@H]4[C@@]5(C)C[C@@H](O)[C@H](O)[C@@](C)(CO)[C@@H]5CC[C@]43C)[C@H]12 [Asiatic acid, asiatic acid]
reduced invasion of E. coli into bladder epithelial cells as compared to the controls [1]: 87%
bacterial invasion (in words) (bacterial invasion): significantly reduced bacterial invasion
inhibition at 40 µg/mL (S. mutans 25175): > 75%
Test Compound, log10 CFU ([2]; test compound 50 μg/ml 24 h): 7.7 log10 CFU
Tobramycin and Test Compound, log10 CFU ([2]; test compound 50 μg/ml 24 h): 5.3 log10 CFU
Test Compound, log10 CFU ([2]; test compound 100 μg/ml 24 h): 7.7 log10 CFU
Tobramycin and Test Compound, log10 CFU ([2]; test compound 100 μg/ml 24 h): 5.5 log10 CFU
Test Compound, log10 CFU ([2]; test compound 200 μg/ml 24 h): 7.5 log10 CFU
Tobramycin and Test Compound, log10 CFU ([2]; test compound 200 μg/ml 24 h): 5.2 log10 CFU
expression of a cysB gene in E. coli (cysB gene): modulate the expression of a cysB gene
MIC [3]: > 64 µg/mL
MIC [4]: > 64 µg/mL
MIC (E. coli (ATCC 25922)): > 64 µg/mL
inhibition at 40 µg/mL (S. sobrinus 6715): > 75%
